#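 Five compound concentrations were applied to cells in 96-well plates for 48 hours; endpoints were derived by simple linear interpolation of the resulting dose-response curve. Here, GI50 denotes the concentration required for 50% inhibition of growth. The concentration for full growth arrest is given as TGI.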
# Columns and labels:
# Assay in all cases: growth of human tumour cells (NCI), 48 h
# [1] = system: HCT-116 colon
# [2] = system: TK-10 renal
# [3] = system: SF-539 CNS
# [4] = system: HT29 colon
# [5] = system: M14 melanoma
# [6] = system: CAKI-1 renal
# [7] = system: T-47D breast
# [8] = system: LOX IMVI melanoma
# [9] = system: NCI-H522 lung
# [10] = system: DU-145 prostate
# [11] = system: HS 578T breast
# [12] = system: SK-MEL-5 melanoma
# [13] = system: SF-268 CNS
# [14] = system: SK-OV-3 ovarian
# [15] = system: PC-3 prostate
# [16] = system: MDA-MB-435
# [17] = system: SN12C renal
# [18] = system: MALME-3M melanoma
# [19] = system: A498 renal
# [20] = system: OVCAR-3 ovarian
# [21] = system: HCT-15 colon
# [22] = system: OVCAR-8 ovarian
# [23] = system: NCI-H460 lung
# [24] = system: EKVX NSCLC
# [25] = system: COLO 205 colon
# [26] = system: RXF 393 renal
# [27] = system: BT-549 breast
# [28] = system: HCC-2998 colon
# [29] = system: NCI-H226 lung
# [30] = system: HOP-92 NSCLC
# [31] = system: CCRF-CEM leukemia
# [32] = system: IGROV1 ovarian
# [33] = system: HOP-62 NSCLC
# [34] = system: MOLT-4 leukemia
# [35] = system: 786-0 renal
# [36] = system: NCI-H23 lung
# [37] = system: SK-MEL-2 melanoma
# [38] = system: SW-620 colon
# [39] = system: UACC-62 melanoma
# [40] = system: MDA-MB-231 breast
# [41] = system: U251 CNS
# [42] = system: OVCAR-4 ovarian
# [43] = system: SNB-75 CNS
# [44] = system: NCI/ADR-RES ovarian
# [45] = system: MCF7 breast
# [46] = system: HL-60(TB) leukemia
# [47] = system: SR leukemia
# [48] = system: RPMI-8226 leukemia
# [49] = system: SNB-19 CNS
# [50] = system: SK-MEL-28 melanoma
# [51] = system: UACC-257 melanoma
# [52] = system: KM12 colon
# [53] = system: UO-31 renal
# [54] = system: SF-295 CNS
# [55] = system: ACHN renal
# [56] = system: A549 NSCLC
# [57] = system: OVCAR-5 ovarian
smiles,measurement,setting,value
COc1cc2c(=O)n(CCN)c3c4cc5c(cc4ccc3c2cc1OC)OCO5,GI50,[1],0.285 µM
same,TGI,[1],1.31 µM
same,GI50,[2],1.62 µM
same,TGI,[2],3.28 µM
same,GI50,[3],0.893 µM
same,TGI,[3],2.25 µM
same,GI50,[4],0.222 µM
same,TGI,[4],1.65 µM
same,GI50,[5],0.425 µM
same,TGI,[5],1.89 µM
same,GI50,[6],0.382 µM
same,TGI,[6],5.94 µM
same,GI50,[7],0.508 µM
same,TGI,[7],16.8 µM
same,GI50,[8],0.362 µM
same,TGI,[8],1.78 µM
same,GI50,[9],0.167 µM
same,TGI,[9],1.83 µM
same,GI50,[10],0.488 µM
same,TGI,[10],1.83 µM
same,GI50,[11],2.8 µM
same,TGI,[11],11.7 µM
same,GI50,[12],0.834 µM
same,TGI,[12],2.15 µM
same,GI50,[13],0.423 µM
same,TGI,[13],2.14 µM
same,GI50,[14],1.24 µM
same,TGI,[14],12 µM
same,GI50,[15],0.591 µM
same,TGI,[15],2.27 µM
same,GI50,[16],0.894 µM
same,TGI,[16],2.29 µM
same,GI50,[17],0.723 µM
same,TGI,[17],2.32 µM
same,GI50,[18],0.692 µM
same,TGI,[18],2.2 µM
same,GI50,[19],1.24 µM
same,TGI,[19],2.64 µM
same,GI50,[20],0.919 µM
same,TGI,[20],2.26 µM
same,GI50,[21],0.651 µM
same,TGI,[21],2.19 µM
same,GI50,[22],0.988 µM
same,TGI,[22],3.91 µM
same,GI50,[23],0.236 µM
same,TGI,[23],1.25 µM
same,GI50,[24],1.47 µM
same,TGI,[24],3.51 µM
same,GI50,[25],0.352 µM
same,TGI,[25],2.11 µM
same,GI50,[26],1.02 µM
same,TGI,[26],2.56 µM
same,GI50,[27],1.06 µM
same,TGI,[27],2.7 µM
same,GI50,[28],1.08 µM
same,TGI,[28],2.47 µM
same,GI50,[29],1.43 µM
same,TGI,[29],3.59 µM
same,GI50,[30],3.31 µM
same,TGI,[30],18 µM
same,GI50,[31],0.182 µM
same,GI50,[32],0.467 µM
same,TGI,[32],2.07 µM
same,GI50,[33],0.444 µM
same,TGI,[33],2.27 µM
same,GI50,[34],0.0671 µM
same,TGI,[34],0.863 µM
same,GI50,[35],0.464 µM
same,TGI,[35],1.97 µM
same,GI50,[36],0.683 µM
same,TGI,[36],2.51 µM
same,GI50,[37],3.69 µM
same,TGI,[37],16.5 µM
same,GI50,[38],0.23 µM
same,TGI,[38],2.07 µM
same,GI50,[39],0.332 µM
same,TGI,[39],1.96 µM
same,GI50,[40],1.23 µM
same,TGI,[40],2.66 µM
same,GI50,[41],0.287 µM
same,TGI,[41],1.75 µM
same,GI50,[42],0.902 µM
same,TGI,[42],2.55 µM
same,GI50,[43],0.892 µM
same,TGI,[43],3.35 µM
same,GI50,[44],1.26 µM
same,TGI,[44],3.6 µM
same,GI50,[45],0.175 µM
same,TGI,[45],1.53 µM
same,GI50,[46],1.24 µM
same,TGI,[46],3.53 µM
same,GI50,[47],0.0907 µM
same,TGI,[47],1.03 µM
same,GI50,[48],0.356 µM
same,TGI,[48],2.37 µM
same,GI50,[49],0.414 µM
same,TGI,[49],1.97 µM
same,GI50,[50],2.09 µM
same,TGI,[50],6.17 µM
same,GI50,[51],1.92 µM
same,TGI,[51],13.3 µM
same,GI50,[52],0.913 µM
same,TGI,[52],2.47 µM
same,GI50,[53],0.605 µM
same,TGI,[53],2.1 µM
same,GI50,[54],0.306 µM
same,TGI,[54],4.08 µM
same,GI50,[55],0.363 µM
same,TGI,[55],1.52 µM
same,GI50,[56],0.626 µM
same,TGI,[56],2.36 µM
same,GI50,[57],1.16 µM
same,TGI,[57],2.59 µM

# — PubChem BioAssay (NCI)
